The values that follow come from US10246498B2, “Genetically encoded histone reporter allele constructs” (THE JOHNS HOPKINS UNIVERSITY, priority 2014, dated 2019).

In the test the test system is DCX positive cells in the GCL. The test is described as follows: Doublecortin (DCX) expression in the GCL (neurogenesis) after oral AR-42. In kind it is in vivo, mouse. The source says: Kmt2d^+/βGeo mice, also named Mll2Gt^(RRt024)Byg, were acquired from Bay Genomics (University of California). All experimental mice were on a mixed C57BL/6J and 129/SvEv background. Expected Mendelian ratios were observed when heterozygous animals were bred to wild-type. In heterozygous crosses, however, there was uniform embryonic lethality of homozygotes by ED12, the earliest developmental stage assayed. For treatment with AR-42, mice were orally gavaged daily with drug (Selleck Chemicals, Houston, Tex.) solubilized in vehicle (0.5% methylcellulose, 0.1% Tween-80, water) or with vehicle alone. Drug delivery information was kindly provided by Drs. Chen and Kulp from Ohio State University (Huang et al. (2011) Mol. Pharmacol. 79:197-20619). Drug was administered for 14 days and mice were sacrificed on day 15. Morris water maze testing was initiated at day 7 and a dose of 10 mg/kg/day was used for these studies. For quantification of DCX positive cells, doses of 0, 5, 10 and 25 mg/kg/day were used. Genotyping was performed using primers B-GeoF-([…]; SEQ ID NO: 1) and B-GeoR-([…]; SEQ ID NO: 2) that are specific for the targeted allele and TcrdF-([…]; SEQ ID NO: 3) and TcrdR-([…]; SEQ ID NO: 4) that control for sufficient DNA concentration. Real-time PCR using the same primers allows discrimination between the heterozygous and homozygous state for the targeted allele. Maxillary protrusion was evaluated by ten investigators blinded to genotype and they were asked to rate maxillary protrusion on radiographs as either large (2) or small (1). […] All experiments were performed using mouse protocols approved by the Animal Care and Committee of Johns Hopkins University School of Medicine. The mouse protocols used for this study are in accordance with the guidelines used by the NIH for mouse care and handling.
Every 6th brain section was selected and then blocked with 5% Bovine Serum Albumin (BSA) at room temperature followed by incubation with primary antibodies overnight at 4° C. Secondary antibodies were then applied for 1 hour at room temperature, after which sections were mounted onto microscope slides with Vectamount with DAPI (Vector Laboratories, Burlingame, Calif.). Primary antibodies included Doublecortin (DCX) (SC-8066, Santa Cruz Biotechnology, Dallas, Tex., 1:200 goat), trimethylated H3K4 (9727L, Cell Signaling Technology, Beverly, Mass., 1:500 rabbit), and Kmt2d H-300 (SC-292359, Santa Cruz Biotechnology, Dallas, Tex., 1:500 rabbit). Non-specific binding was not observed when sections were sequentially exposed to serum (or IgG when appropriate) from the same species as the primary antibody for each experiment (i.e. rabbit for KMT2D and H3K4me3 and goat for doublecortin), followed by the secondary antibody used for KMT2D and H3K4me3 (anti-rabbit) or doublecortin (anti-goat, FIG. 29).
The area of both the GCL and DCX+ cells was measured using the NS elements 2.0 software (Nikon, Tokyo, JPN). Normalized DCX area was calculated by measuring the DCX+ area of the GCL and setting the baseline (Kmt2d^+/+) fraction to 1. A Student t-test with significance value set at P<0.05 was used for comparison of DCX+ area referenced to GCL area between genotypes and treatment arms.

With `CC(C)[C@H](C(=O)Nc1ccc(C(=O)NO)cc1)c1ccccc1` [AR-42], the DCX expression result runs as follows: (10 mg/kg/day, older (5-6 months) Kmt2d+/βGeo mice) “improved”; (25 mg/kg/day, Kmt2d+/+ animals) “reduced DCX expression”; (25 mg/kg/day, Kmt2d+/βGeo mice) “did not improve DCX expression”; (5 and 10 mg/kg/day, Kmt2d+/+ or Kmt2d+/βGeo, both age groups) “preservation or restoration of DCX expression”. For the same compound, the “DCX expression in the GCL” value (25 mg/kg/day, young (1-2 month) and old (5-6 month) mice, both genotypes) is “decreased DCX expression”. Moreover, the “neurogenesis (normalized DCX expression)” value (5 and 10 mg/kg/day, 1-2 month old Kmt2d+/βGeo mice) is listed as “dose-dependent increase in neurogenesis”.
